In patent US10477864B2, “Microbiocidal quinoline (thio)carboxamide derivatives” (priority 2016, dated 2019):

Assays:
[1] = tested on: Botryotinia fuckeliana (Botrytis cinerea); assay: Botryotinia fuckeliana (Botrytis cinerea) / liquid culture (gray mould); format: cell-based; conditions: 72 h, read-out: control of Botryotinia fuckeliana
[2] = tested on: Glomerella lagenarium (Colletotrichum lagenarium); assay: Glomerella lagenarium (Colletotrichum lagenarium) / liquid culture (anthracnose); format: cell-based; conditions: Colletotrichum orbiculare; read-out: control of Glomerella lagenarium
[3] = tested on: Fusarium culmorum; assay: microbe, parasite or virus in culture; format: cell-based; conditions: read-out: control of Fusarium culmorum
[4] = tested on: Fusarium culmorum; assay: whole plant or invertebrate; format: in vivo; conditions: in Triticum aestivum, read-out: control of Fusarium culmorum

| Compound | inhibition of growth at 200 ppm [1] [%] | inhibition of growth at 200 ppm [2] [%] | inhibition of growth at 200 ppm [3] [%] | pest or weed control at 200 ppm [4] [%] |
| --- | --- | --- | --- | --- |
| CC(C)C[C@](C)(Cc1ccccc1)NC(=O)c1cnc2c(F)c(F)ccc2c1 [Compound F-21, N-[(1R)-1-benzyl-1,3-dimethyl-butyl]-7,8-difluoro-quinoline-3-carboxamide] | ≥ 80 | ≥ 80 | ≥ 80 | ≥ 80 |
| C[C@](Cc1ccccc1)(CC(F)(F)F)NC(=O)c1cnc2c(F)cccc2c1 [Compound F-11, N-[(1S)-1-benzyl-3,3,3-trifluoro-1-methyl-propyl]-8-fluoro-quinoline-3-carboxamide] | ≥ 80 | ≥ 80 | ≥ 80 | ≥ 80 |
| CC(Cc1ccccc1)(CC(F)(F)F)NC(=O)c1cnc2ccc(F)cc2c1 (centres unmarked) [Compound E-84, N-(1-benzyl-3,3,3-trifluoro-1-methyl-propyl)-6-fluoro-quinoline-3-carboxamide] | ≥ 80 | – | ≥ 80 | ≥ 80 |
| CC(Cc1ccccc1)(CC(F)(F)F)NC(=O)c1cnc2c(F)cccc2c1Cl (centres unmarked) [Compound E-96, N-(1-benzyl-3,3,3-trifluoro-1-methyl-propyl)-4-chloro-8-fluoro-quinoline-3-carboxamide] | ≥ 80 | ≥ 80 | ≥ 80 | ≥ 80 |
| Cc1nc2c(F)cccc2cc1C(=O)NC(C)(Cc1ccccc1)CC(F)(F)F (centres unmarked) [Compound E-89, N-(1-benzyl-3,3,3-trifluoro-1-methyl-propyl)-8-fluoro-2-methyl-quinoline-3-carboxamide] | ≥ 80 | ≥ 80 | ≥ 80 | ≥ 80 |
| CC(CCO)(Cc1ccccc1)NC(=O)c1cnc2c(F)cccc2c1 (centres unmarked) [Compound E-119, N-(1-benzyl-3-hydroxy-1-methyl-propyl)-8-fluoro-quinoline-3-carboxamide] | ≥ 80 | – | ≥ 80 | – |
| COc1cccc2ncc(C(=O)NC(C)(Cc3ccccc3)CC(F)(F)F)cc12 (centres unmarked) [Compound E-81, N-(1-benzyl-3,3,3-trifluoro-1-methyl-propyl)-5-methoxy-quinoline-3-carboxamide] | ≥ 80 | – | ≥ 80 | ≥ 80 |
| Cc1c(C(=O)NC(C)(Cc2ccccc2)CC(C)C)cnc2c(C#N)cccc12 (centres unmarked) [Compound E-109, N-(1-benzyl-1,3-dimethyl-butyl)-8-cyano-4-methyl-quinoline-3-carboxamide] | ≥ 80 | – | ≥ 80 | ≥ 80 |
| CC(C)CC(C)(Cc1ccccc1)NC(=O)c1cc2ccccc2[n+]([O-])c1 (centres unmarked) [Compound E-41, N-(1-benzyl-1,3-dimethyl-butyl)-1-oxido-quinolin-1-ium-3-carboxamide] | ≥ 80 | – | ≥ 80 | – |
| CC(C)CC(C)(Cc1ccccc1)NC(=O)c1cnc2ccc(F)cc2c1 (centres unmarked) [Compound E-73, N-(1-benzyl-1,3-dimethyl-butyl)-6-fluoro-quinoline-3-carboxamide] | ≥ 80 | – | ≥ 80 | – |
| CC(C)CC(C)(Cc1ccccc1)NC(=O)c1cnc2ccc(O)cc2c1 (centres unmarked) [Compound E-76, N-(1-benzyl-1,3-dimethyl-butyl)-6-hydroxy-quinoline-3-carboxamide] | ≥ 80 | – | ≥ 80 | ≥ 80 |
| CC(Cc1ccccc1)(CC(F)(F)F)NC(=O)c1cnc2ccc(Cl)cc2c1 (centres unmarked) [Compound E-78, N-(1-benzyl-3,3,3-trifluoro-1-methyl-propyl)-6-chloro-quinoline-3-carboxamide] | – | – | ≥ 80 | – |
| CC(Cc1ccccc1)(CC(F)(F)F)NC(=O)c1cnc2cccc(F)c2c1 (centres unmarked) [Compound E-80, N-(1-benzyl-3,3,3-trifluoro-1-methyl-propyl)-5-fluoro-quinoline-3-carboxamide] | ≥ 80 | – | ≥ 80 | ≥ 80 |
| CC(C)C[C@@](C)(Cc1ccccc1)NC(=O)c1cnc2c(F)c(F)ccc2c1 [Compound F-22, N-[(1S)-1-benzyl-1,3-dimethyl-butyl]-7,8-difluoro-quinoline-3-carboxamide] | ≥ 80 | ≥ 80 | ≥ 80 | – |
| CC(C=O)(Cc1ccccc1)NC(=O)c1cnc2c(F)cccc2c1 (centres unmarked) [Compound E-120, N-(1-benzyl-1-methyl-2-oxo-ethyl)-8-fluoro-quinoline-3-carboxamide] | – | – | ≥ 80 | – |
| C=C(C)CC(C)(Cc1ccccc1)NC(=O)c1cc2cccc(F)c2nc1C (centres unmarked) [Compound E-124, N-(1-benzyl-1,3-dimethyl-but-3-enyl)-8-fluoro-2-methyl-quinoline-3-carboxamide] | ≥ 80 | – | ≥ 80 | – |
| Cc1ccc2ncc(C(=O)NC(C)(Cc3ccccc3)CC(F)(F)F)cc2c1 (centres unmarked) [Compound E-77, N-(1-benzyl-3,3,3-trifluoro-1-methyl-propyl)-6-methyl-quinoline-3-carboxamide] | ≥ 80 | – | ≥ 80 | ≥ 80 |
| Cc1ccc2ncc(C(=O)NC(C)(Cc3ccccc3)CC(C)C)cc2c1 (centres unmarked) [Compound E-71, N-(1-benzyl-1,3-dimethyl-butyl)-6-methyl-quinoline-3-carboxamide] | ≥ 80 | – | ≥ 80 | ≥ 80 |
| CC(C)CC(C)(Cc1ccccc1)NC(=O)c1cnc2cccc(F)c2c1 (centres unmarked) [Compound E-74, N-(1-benzyl-1,3-dimethyl-butyl)-5-fluoro-quinoline-3-carboxamide] | ≥ 80 | – | ≥ 80 | ≥ 80 |
| CC(C)(Cc1ccccc1)NC(=O)c1cnc2c(F)cccc2c1 [Compound E-11, N-(1,1-dimethyl-2-phenyl-ethyl)-8-fluoro-quinoline-3-carboxamide] | ≥ 80 | – | ≥ 80 | ≥ 80 |
| Cc1nc2c(F)cccc2cc1C(=O)N[C@](C)(Cc1ccccc1)CC(F)(F)F [Compound F-34, N-[(1R)-1-benzyl-3,3,3-trifluoro-1-methyl-propyl]-8-fluoro-2-methyl-quinoline-3-carboxamide] | ≥ 80 | ≥ 80 | ≥ 80 | – |
| Cc1ccc2cc(C(=O)NC(C)(Cc3ccccc3)CC(C)C)cnc2c1 (centres unmarked) [Compound E-72, N-(1-benzyl-1,3-dimethyl-butyl)-7-methyl-quinoline-3-carboxamide] | ≥ 80 | – | ≥ 80 | ≥ 80 |
| CC(Cc1ccccc1)(CC(F)(F)F)NC(=O)c1cnc2ccc(O)cc2c1 (centres unmarked) [Compound E-82, N-(1-benzyl-3,3,3-trifluoro-1-methyl-propyl)-6-hydroxy-quinoline-3-carboxamide] | ≥ 80 | – | ≥ 80 | ≥ 80 |
| COc1cccc2ncc(C(=O)NC(C)(Cc3ccccc3)CC(C)C)cc12 (centres unmarked) [Compound E-75, N-(1-benzyl-1,3-dimethyl-butyl)-5-methoxy-quinoline-3-carboxamide] | ≥ 80 | – | ≥ 80 | ≥ 80 |
